Experimental data: patent US10941157B2, “Pesticidal compositions and uses thereof” (Gilead Apollo, LLC, priority 2015, dated 2021)
In brackets after ≈: the same amount, converted by molar mass.

Columns and labels:
Puccinia triticina = assay: Foliar protection test for wheat leaf rust control; type: in vivo; conditions: foliar application to wheat (Triticum aestivum cv. Winterhawk), evaluated 10 days later
[1] = system: Phytophthora capsici (Pc); assay: In vitro pathogen growth inhibition assay, Pc; type: cell-based; conditions: 48 h, ≥90% growth inhibition, 48 hours, vs 2% DMSO control, read-out: Compound Concentration (ppm) sufficient for ≥90% inhibition of Pc
In short: (§1)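 Value reported is the compound concentration reaching ≥90% growth inhibition, from OD readings at 24 and 48 h after blank subtraction, confirmed visually. Inoculum was spores diluted in 17% V8 medium, except Rs, using 1.5 mm mycelial plugs in ¼ PDB; actual compound concentration corrected via OD600.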

[2] = system: Fusarium virguliforme (Fv); assay: In vitro pathogen growth inhibition assay, Fv; type: cell-based; conditions: ≥90% growth inhibition, 48 hours, vs 2% DMSO control, read-out: Compound Concentration (ppm) sufficient for ≥90% inhibition of Fv
In short: as §1

Fusarium graminearum = type: in vivo; conditions: spray on flowering Triticum aestivum cv. Samson, inoculated 24 hours after treatment, evaluated 14 days later
Phakopsora pachyrhizi = assay: Foliar protection test for Asian soybean rust control; type: in vivo; conditions: foliar application to soybean (Glycine max AG4832), percent disease area evaluated 14 days later
[3] = system: Blumeria graminis f. sp. hordei; assay: Foliar protection test for barley powdery mildew control; type: in vivo; conditions: foliar spray on Hordeum vulgare cv. Perry, inoculated 24 hours after treatment, evaluated 7 days later
Protocol: Plants (Hordeum vulgare cv. Perry) were grown for 6 days in 2-inch square pots containing Metromix 200 medium amended with fertilizer. […] After inoculation with the pathogen of Blumeria graminis f. sp. hordei, plants were kept at conditions of 20 to 22° C., 70% relative humidity, and 200 uM of light to facilitate infection and disease development. […] An atomizer was used for applying the solution onto both sides of the leaves until thoroughly wetted. […] At 24 hours after treatment, the plants were moved to a cooler chamber and inoculated by shaking well-colonized, untreated stock plants above the treated plants. This allowed producing a settling cloud of spores and resulting in uniform infection. Efficacy was evaluated in 7 days later by examining leaves for colonization and growth of mildew. Table 4 lists the results of barley powdery mildew control at a compound concentration of 10 ppm or lower.

Septoria tritici (St) = assay: In vitro pathogen growth inhibition assay, St; type: cell-based; conditions: Zymoseptoria tritici, 48 h, ≥90% growth inhibition; 48 hours; vs 2% DMSO control; read-out: Compound Concentration (ppm) sufficient for ≥90% inhibition of St
In short: as §1

[4] = system: Mycosphaerella graminicola (synthetic Septoria tritici); assay: Foliar protection test for wheat septoria leaf blotch control; type: in vivo; conditions: foliar spray on Triticum aestivum cv. WinterHawk, inoculated 1 hour after treatment, evaluated 16 days later
[5] = system: Fusarium moniliforme (Fm); assay: In vitro pathogen growth inhibition assay, Fm; type: cell-based; conditions: Fusarium verticillioides; ≥90% growth inhibition; 48 hours; vs 2% DMSO control; read-out: Compound Concentration (ppm) sufficient for ≥90% inhibition of Fm
In short: as §1

Botrtyis cinerea (Bc) = assay: In vitro pathogen growth inhibition assay, Bc; type: cell-based; conditions: 48 h, ≥90% growth inhibition; 48 hours; vs 2% DMSO control; read-out: Compound Concentration (ppm) sufficient for ≥90% inhibition of Bc
In short: as §1

Sphaerotheca fuliginea = assay: Foliar protection for cucumber powdery mildew control; type: in vivo; conditions: foliar spray on Cucumis sativus cv. Straight Eight, inoculated 24 hours after treatment, evaluated 7 days later
Protocol: Plants (Cucumis sativus cv. Straight Eight) were grown for 10 days in 2.5-inch square pots containing Metromix 200 medium amended with fertilizer. For propagation, plants were maintained in a growth chamber at conditions of 23 to 27° C., 16 hour light cycle, ambient humidity, and with sub-irrigation as needed. After inoculation with the pathogen of Sphaerotheca fuliginea, plants were kept at conditions of 23 to 27° C., 16 hour light cycle, 60% relative humidity, and with sub-irrigation as needed to facilitate infection and disease development. […] An atomizer was used for applying the solution onto both sides of the leaves until thoroughly wetted. […] At 24 hours after treatment, the plants were moved to a cooler chamber and inoculated by shaking well-colonized, untreated stock plants above the treated plants. This allowed producing a settling cloud of spores and resulting in uniform infection. Inoculated plants were kept near other sporulating stock plants to allow for infection of newly emerging leaves. Efficacy was evaluated in 7 days later by examining leaves for colonization and growth of mildew. Table 5 lists the results of cucumber powdery mildew control at a compound concentration of 10 ppm or lower.

Rhizoctonia solani (Rs) = assay: In vitro pathogen growth inhibition assay, Rs (mycelial plugs); type: cell-based; conditions: Rhizoctonia solani, 48 h, ≥90% growth inhibition; mycelial plugs; 48 hours; vs 2% DMSO control; read-out: Compound Concentration (ppm) sufficient for ≥90% inhibition of Rs
In short: as §1

Diplodia maydis (Dm) = assay: In vitro pathogen growth inhibition assay, Dm; type: cell-based; conditions: Stenocarpella maydis, 48 h, ≥90% growth inhibition; 48 hours; vs 2% DMSO control; read-out: Compound Concentration (ppm) sufficient for ≥90% inhibition of Dm
In short: as §1

[6] = system: Collectotrichum graminicola (Cg); assay: In vitro pathogen growth inhibition assay, Cg; type: cell-based; conditions: 48 h, ≥90% growth inhibition; 48 hours; vs 2% DMSO control; read-out: Compound Concentration (ppm) sufficient for ≥90% inhibition of Cg
In short: as §1

| SMILES | Wheat Leaf Rust Control at a compound concentration of 10 ppm or lower (Puccinia triticina) | IC90 [1] [mg/L] | IC90 [2] [mg/L] | Wheat Fusarium Head Blight Control at a compound concentration of 25 ppm or lower (Fusarium graminearum) | Asian Soybean Rust Control at a compound concentration of 25 ppm or lower (Phakopsora pachyrhizi) | Barley Powdery Mildew Control at a compound concentration of 10 ppm or lower [3] | IC90 (Septoria tritici (St)) [mg/L] | Septoria Leaf Blotch Control at a compound concentration of 25 ppm or lower [4] | IC90 [5] [mg/L] | IC90 (Botrtyis cinerea (Bc)) [mg/L] | Cucumber Powdery Mildew Control at a compound concentration of 10 ppm or lower (Sphaerotheca fuliginea) | IC90 (Rhizoctonia solani (Rs)) [mg/L] | IC90 (Diplodia maydis (Dm)) [mg/L] | IC90 [6] [mg/L] |
| --- | --- | --- | --- | --- | --- | --- | --- | --- | --- | --- | --- | --- | --- | --- |
| COc1ccc(F)cc1[C@H](Cn1c(=O)n(C(C)(C)C(=O)NC(C)C)c(=O)c2c(C)c(-n3cccn3)sc21)OC[C@H](C)C#N [Compound I-263, 2-(1-((R)-2-((R)-2-cyanopropoxy)-2-(5-fluoro-2-methoxyphenyl)ethyl)-5-methyl-2,4-dioxo-6-(1H-pyrazol-1-yl)-1,4-dihydrothieno[2,3-d]pyrimidin-3 (2H)-yl)-N-isopropyl-2-methylpropanamide] | AA (≥85% control of wheat leaf rust) | ≥ 50 | 0.4 (≈ 0.655 µM) | B (from 50 to 69% control of wheat fusarium head blight) | AA (≥85% control of Asian soybean rust) | A (from 70% to 84% control of barley powdery mildew) | > 10 | D (<25% control of wheat septoria leaf blotch) | ≥ 0.08 | 0.4 (≈ 0.655 µM) | AA (≥85% control of cucumber powdery mildew) | 0.4 (≈ 0.655 µM) | 2 (≈ 3.27 µM) | 0.4 (≈ 0.655 µM) |
| COc1ccc(F)cc1[C@H](Cn1c(=O)n([C@H](C)C(=O)NC2CCC2)c(=O)c2c(C)c(-n3cccn3)sc21)OCCC#N [Compound I-308, (R)-2-(1-((R)-2-(2-cyanoethoxy)-2-(5-fluoro-2-methoxyphenyl)ethyl)-5-methyl-2,4-dioxo-6-(1H-pyrazol-1-yl)-1,4-dihydrothieno[2,3-d]pyrimidin-3 (2H)-yl)-N-cyclobutylpropanamide] | AA (≥85% control of wheat leaf rust) | 50 (≈ 84.1 µM) | 2 (≈ 3.36 µM) | C (from 25 to 49% control of wheat fusarium head blight) | C (from 25 to 49% control of Asian soybean rust) | AA (≥85% control of barley powdery mildew) | > 50 | AA (≥85% control of wheat septoria leaf blotch) | 0.4 (≈ 0.673 µM) | 0.4 (≈ 0.673 µM) | AA (≥85% control of cucumber powdery mildew) | 0.08 (≈ 0.135 µM) | 2 (≈ 3.36 µM) | 2 (≈ 3.36 µM) |
| COc1ccc(F)cc1[C@H](Cn1c(=O)n([C@H](C)C(=O)N2CCCC2)c(=O)c2c(C)c(-n3nccn3)sc21)OCCC#N [Compound I-202, 3-((R)-1-(5-fluoro-2-methoxyphenyl)-2-(5-methyl-2,4-dioxo-3-((R)-1-oxo-1-(pyrrolidin-1-yl)propan-2-yl)-6-(2H-1,2,3-triazol-2-yl)-3,4-dihydrothieno[2,3-d]pyrimidin-1(2H)-yl)ethoxy)propanenitrile] | A (from 70% to 84% control of wheat leaf rust) | ≥ 50 | 0.4 (≈ 0.672 µM) | D (<25% control of wheat fusarium head blight) | A (from 70% to 84% control of Asian soybean rust) | A (from 70% to 84% control of barley powdery mildew) | > 50 | D (<25% control of wheat septoria leaf blotch) | 0.08 (≈ 0.134 µM) | ≥ 0.4 | AA (≥85% control of cucumber powdery mildew) | 0.4 (≈ 0.672 µM) | 2 (≈ 3.36 µM) | 2 (≈ 3.36 µM) |
| CCOC(=O)c1sc2c(c1C)c(=O)n(C(C)(C)C(=O)NC(C)C)c(=O)n2C[C@H](OCCC#N)c1ccccc1OC [Compound I-233, (R)-ethyl-1-(2-(2-cyanoethoxy)-2-(2-methoxyphenyl)ethyl)-3-(1-(isopropylamino)-2-methyl-1-oxopropan-2-yl)-5-methyl-2,4-dioxo-1,2,3,4-tetrahydrothieno[2,3-d]pyrimidine-6-carboxylate] | AA (≥85% control of wheat leaf rust) | ≥ 2 | 0.4 (≈ 0.684 µM) | C (from 25 to 49% control of wheat fusarium head blight) | A (from 70% to 84% control of Asian soybean rust) | AA (≥85% control of barley powdery mildew) | ≥ 10 | C (from 25 to 49% control of wheat septoria leaf blotch) | 0.08 (≈ 0.137 µM) | 0.4 (≈ 0.684 µM) | A (from 70% to 84% control of cucumber powdery mildew) | 2 (≈ 3.42 µM) | 0.4 (≈ 0.684 µM) | 0.4 (≈ 0.684 µM) |
| CCOC(=O)c1sc2c(c1C)c(=O)n(C(C)(C)C(=O)NC(C)C)c(=O)n2C[C@H](OCCO)c1cc(F)ccc1OC [Compound I-184, (R)-ethyl-1-(2-(5-fluoro-2-methoxyphenyl)-2-(2-hydroxyethoxy)ethyl)-3-(1-(isopropylamino)-2-methyl-1-oxopropan-2-yl)-5-methyl-2,4-dioxo-1,2,3,4-tetrahydrothieno[2,3-d]pyrimidine-6-carboxylate] | AA (≥85% control of wheat leaf rust) | 50 (≈ 84.2 µM) | 2 (≈ 3.37 µM) | A (from 70% to 84% control of wheat fusarium head blight) | B (from 50 to 69% control of Asian soybean rust) | A (from 70% to 84% control of barley powdery mildew) | > 50 | C (from 25 to 49% control of wheat septoria leaf blotch) | 0.08 (≈ 0.135 µM) | 2 (≈ 3.37 µM) | AA (≥85% control of cucumber powdery mildew) | 0.08 (≈ 0.135 µM) | 0.4 (≈ 0.674 µM) | 0.4 (≈ 0.674 µM) |
